Measurements taken from US8927717B1, “Thiochromeno[2,3-c]quinolin-12-one derivatives, preparation method and application thereof” (National Defense Medical Center, priority 2014, dated 2015).

Legend:
Format in all cases: cell-based
CCRF-CEM = details: CCRF-CEM; 10^−5 molar
HL-60(TB) = details: HL-60(TB); 10^−5 molar
K-562 = details: K-562; 10^−5 molar
MOLT-4 = details: MOLT-4; 10^−5 molar
RPMI-8226 = details: RPMI-8226; 10^−5 molar
SR = details: SR; 10^−5 molar
A549/ATCC = details: A549/ATCC; 10^−5 molar
NCI-H23 = details: NCI-H23; 10^−5 molar
NCI-H460 = details: NCI-H460; 10^−5 molar
NCI-H522 = details: NCI-H522; 10^−5 molar
COLO 205 = details: COLO 205; 10^−5 molar
HCT-15 = details: HCT-15; 10^−5 molar
HT29 = details: HT29; 10^−5 molar
SW-620 = details: SW-620; 10^−5 molar
SF-295 = details: SF-295; 10^−5 molar
SNB-19 = details: SNB-19; 10^−5 molar
SNB-75 = details: SNB-75; 10^−5 molar
LOX IMVI = details: LOX IMVI; 10^−5 molar
MALME-3M = details: MALME-3M; 10^−5 molar
M14 = details: M14; 10^−5 molar
MDA-MB-435 = details: MDA-MB-435; 10^−5 molar
SK-MEL-28 = details: SK-MEL-28; 10^−5 molar
UACC-62 = details: UACC-62; 10^−5 molar
OVCAR-5 = details: OVCAR-5; 10^−5 molar
OVCAR-8 = details: OVCAR-8; 10^−5 molar
786-0 = details: 786-0; 10^−5 molar
A498 = details: A498; 10^−5 molar
RXF 393 = details: RXF 393; 10^−5 molar
SN12C = details: SN12C; 10^−5 molar
TK-10 = details: TK-10; 10^−5 molar
UO-31 = details: UO-31; 10^−5 molar
PC-3 = details: PC-3; 10^−5 molar
DU-145 = details: DU-145; 10^−5 molar
MCF7 = details: MCF7; 10^−5 molar
HS 578T = details: HS 578T; 10^−5 molar
BT-549 = details: BT-549; 10^−5 molar
T-47D = details: T-47D; 10^−5 molar
MDA-MB-486 = details: MDA-MB-486; 10^−5 molar
60 cancer cell lines = experiment: NCI 60-cell screen, SRB, whole panel (mean, delta, range); details: 10^−5 molar; for Growth percent, Delta: delta over panel; for Growth percent, Mean: mean over panel; for Growth percent, Range: range over panel

O=c1c2cc(Cl)ccc2sc2c(NCc3ccc4c(c3)OCO4)nc3ccccc3c12 [Compound N27, 6-((Benzo[d][1,3]dioxol-5-ylmethyl)amino)-10-chloro-12H-thiochromeno[2,3-c]quinolin-12-one]
Growth percent (CCRF-CEM): 88.86%
Growth percent (HL-60(TB)): 112.12%
Growth percent (K-562): 80.37%
Growth percent (MOLT-4): 87.55%
Growth percent (RPMI-8226): 96.35%
Growth percent (SR): 79.57%
Growth percent (A549/ATCC): 104.74%
Growth percent (NCI-H23): 79.93%
Growth percent (NCI-H460): 76.71%
Growth percent (NCI-H522): 78.43%
Growth percent (COLO 205): 87.63%
Growth percent (HCT-15): 77.41%
Growth percent (HT29): 82.91%
Growth percent (SW-620): 76.95%
Growth percent (SF-295): 94.39%
Growth percent (SNB-19): 97.62%
Growth percent (SNB-75): 57.14%
Growth percent (LOX IMVI): 78.69%
Growth percent (MALME-3M): 81.64%
Growth percent (M14): 94.93%
Growth percent (MDA-MB-435): 91.64%
Growth percent (SK-MEL-28): 88.24%
Growth percent (UACC-62): 72.96%
Growth percent (OVCAR-5): 84.38%
Growth percent (OVCAR-8): 79.45%
Growth percent (786-0): 95.83%
Growth percent (A498): 75.91%
Growth percent (RXF 393): 74.20%
Growth percent (SN12C): 85.53%
Growth percent (TK-10): 116.79%
Growth percent (UO-31): 80.98%
Growth percent (PC-3): 78.54%
Growth percent (DU-145): 72.44%
Growth percent (MCF7): 43.53%
Growth percent (HS 578T): 70.49%
Growth percent (BT-549): 111.06%
Growth percent (T-47D): 74.41%
Growth percent (MDA-MB-486): 60.47%
Growth percent, Delta (60 cancer cell lines): 36.65%
Growth percent, Mean (60 cancer cell lines): 81.18%
Growth percent, Range (60 cancer cell lines): 73.26%

O=c1c2cc(Cl)ccc2sc2c(NCCc3ccccc3)nc3ccccc3c12 [Compound N30, 10-Chloro-6-(phenethylamino)-12H-thiochromeno[2,3-c]quinolin-12-one]
Growth percent (CCRF-CEM): 114.29%
Growth percent (HL-60(TB)): 105.68%
Growth percent (K-562): 82.82%
Growth percent (MOLT-4): 87.33%
Growth percent (RPMI-8226): 77.36%
Growth percent (SR): 89.88%
Growth percent (A549/ATCC): 88.44%
Growth percent (NCI-H23): 89.89%
Growth percent (NCI-H460): 95.11%
Growth percent (NCI-H522): 93.93%
Growth percent (COLO 205): 100.02%
Growth percent (HCT-15): 91.82%
Growth percent (HT29): 109.15%
Growth percent (SW-620): 93.45%
Growth percent (SF-295): 95.46%
Growth percent (SNB-19): 100.6%
Growth percent (SNB-75): 68.76%
Growth percent (LOX IMVI): 89.03%
Growth percent (MALME-3M): 122.61%
Growth percent (M14): 97.97%
Growth percent (MDA-MB-435): 106.06%
Growth percent (SK-MEL-28): 98.94%
Growth percent (UACC-62): 74.67%
Growth percent (OVCAR-5): 102.03%
Growth percent (OVCAR-8): 95.61%
Growth percent (786-0): 108.00%
Growth percent (A498): 83.22%
Growth percent (RXF 393): 96.74%
Growth percent (SN12C): 86.54%
Growth percent (TK-10): 122.13%
Growth percent (UO-31): 75.82%
Growth percent (PC-3): 87.25%
Growth percent (DU-145): 100.17%
Growth percent (MCF7): 60.91%
Growth percent (HS 578T): 87.62%
Growth percent (BT-549): 106.85%
Growth percent (T-47D): 71.96%
Growth percent (MDA-MB-486): 63.11%
Growth percent, Delta (60 cancer cell lines): 32.31%
Growth percent, Mean (60 cancer cell lines): 93.22%
Growth percent, Range (60 cancer cell lines): 61.70%

COc1ccc(CCNc2nc3ccccc3c3c(=O)c4cc(Cl)ccc4sc23)cc1 [Compound N31, 10-Chloro-6-((4-methoxyphenethyl)amino)-12H-thiochromeno[2,3-c]quinolin-12-one]
Growth percent (CCRF-CEM): 100.93%
Growth percent (HL-60(TB)): 94.27%
Growth percent (K-562): 91.76%
Growth percent (MOLT-4): 82.02%
Growth percent (RPMI-8226): 99.98%
Growth percent (SR): 94.13%
Growth percent (A549/ATCC): 93.49%
Growth percent (NCI-H23): 92.72%
Growth percent (NCI-H460): 98.14%
Growth percent (NCI-H522): 93.69%
Growth percent (COLO 205): 105.41%
Growth percent (HCT-15): 100.67%
Growth percent (HT29): 120.78%
Growth percent (SW-620): 97.10%
Growth percent (SF-295): 95.31%
Growth percent (SNB-19): 96.74%
Growth percent (SNB-75): 74.50%
Growth percent (LOX IMVI): 87.78%
Growth percent (MALME-3M): 99.74%
Growth percent (M14): 100.06%
Growth percent (MDA-MB-435): 104.49%
Growth percent (SK-MEL-28): 99.41%
Growth percent (UACC-62): 80.17%
Growth percent (OVCAR-5): 100.83%
Growth percent (OVCAR-8): 97.83%
Growth percent (786-0): 100.71%
Growth percent (A498): 99.56%
Growth percent (RXF 393): 88.50%
Growth percent (SN12C): 94.23%
Growth percent (TK-10): 132.57%
Growth percent (UO-31): 72.12%
Growth percent (PC-3): 84.95%
Growth percent (DU-145): 107.03%
Growth percent (MCF7): 59.13%
Growth percent (HS 578T): 87.49%
Growth percent (BT-549): 105.24%
Growth percent (T-47D): 69.90%
Growth percent (MDA-MB-486): 53.93%
Growth percent, Delta (60 cancer cell lines): 39.45%
Growth percent, Mean (60 cancer cell lines): 93.38%
Growth percent, Range (60 cancer cell lines): 78.64%
